IC50 data for 16 compounds are collected here from patent US10316049B2, “Tank-binding kinase inhibitor compounds” (Gilead Sciences, Inc., priority 2015, dated 2019).

One experiment has as its target T1, TBK1 (Homo sapiens, UniProt Q9UHD2).
T1 construct: TBK1 and IKKε were expressed and purified as full length recombinant proteins; made in house
T1 sequence (Q9UHD2 1-729): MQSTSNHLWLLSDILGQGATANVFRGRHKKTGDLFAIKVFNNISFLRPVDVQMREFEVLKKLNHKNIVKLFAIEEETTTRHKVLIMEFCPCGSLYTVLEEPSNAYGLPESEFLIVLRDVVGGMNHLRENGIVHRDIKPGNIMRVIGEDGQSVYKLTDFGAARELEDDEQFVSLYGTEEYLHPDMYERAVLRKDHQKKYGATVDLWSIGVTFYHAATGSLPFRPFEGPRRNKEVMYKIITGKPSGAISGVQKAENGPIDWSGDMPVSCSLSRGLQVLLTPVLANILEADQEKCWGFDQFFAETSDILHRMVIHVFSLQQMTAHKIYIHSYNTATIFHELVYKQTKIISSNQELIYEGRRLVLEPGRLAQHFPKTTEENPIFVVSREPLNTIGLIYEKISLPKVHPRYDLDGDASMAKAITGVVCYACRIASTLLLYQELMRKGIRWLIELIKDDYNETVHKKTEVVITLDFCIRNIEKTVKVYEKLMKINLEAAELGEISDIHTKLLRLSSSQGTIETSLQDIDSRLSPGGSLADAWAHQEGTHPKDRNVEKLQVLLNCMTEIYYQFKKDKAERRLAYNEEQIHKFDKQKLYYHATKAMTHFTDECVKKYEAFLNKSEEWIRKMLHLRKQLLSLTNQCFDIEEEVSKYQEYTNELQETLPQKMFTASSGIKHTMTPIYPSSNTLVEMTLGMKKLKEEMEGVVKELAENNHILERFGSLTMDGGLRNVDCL
The experiment in a line: TR-FRET enzymatic activity assay, TBK1. Also: full length recombinant TBK1 at 2.5 nM. Type of experiment: biochemical. As to the method: (§1) Biological Assay for TBK1 and IKKε:
Enzymatic activity of IKKε and TBK1 was measured using a homogeneous time resolved fluorescence resonance energy transfer (TR-FRET) assay that monitors enzyme dependent phosphorylation of a biotinylated serine/threonine peptide substrate. An increase in the amount of phosphorylated peptide results in an increase in TR-FRET signal. TBK1 and IKKε were expressed and purified as full length recombinant proteins. Detection reagents for the assay were purchased from Cisbio. […] After an assay reaction time of 240 minutes at 25° C., reactions were terminated with EDTA.
Amount of phosphorylated peptide was determined by the addition of 125 nM streptavidin XL665 and europium cryptate labeled anti-phospho monoclonal antibody and the resulting TR-FRET signal was recorded on an Envision plate reader (Ex: 340 nm; Em: 615/665 nm; 100 μs delay and 200 μs read window). Data was normalized based on a positive (1 μM Staurosporine) and negative (DMSO) controls and IC50 values calculated from the fit of the dose-response curves to a four-parameter equation. All IC50 values represent geometric mean values of a minimum of four determinations. These assays generally produced results within 3-fold of the reported mean.
A general note: Time-resolved FRET reads energy transfer from a long-lived donor to a nearby acceptor.

In the next experiment the target is T2, IKKε (Homo sapiens, UniProt Q14164).
T2 construct: TBK1 and IKKε were expressed and purified as full length recombinant proteins; made in house
T2 sequence (Q14164 1-716): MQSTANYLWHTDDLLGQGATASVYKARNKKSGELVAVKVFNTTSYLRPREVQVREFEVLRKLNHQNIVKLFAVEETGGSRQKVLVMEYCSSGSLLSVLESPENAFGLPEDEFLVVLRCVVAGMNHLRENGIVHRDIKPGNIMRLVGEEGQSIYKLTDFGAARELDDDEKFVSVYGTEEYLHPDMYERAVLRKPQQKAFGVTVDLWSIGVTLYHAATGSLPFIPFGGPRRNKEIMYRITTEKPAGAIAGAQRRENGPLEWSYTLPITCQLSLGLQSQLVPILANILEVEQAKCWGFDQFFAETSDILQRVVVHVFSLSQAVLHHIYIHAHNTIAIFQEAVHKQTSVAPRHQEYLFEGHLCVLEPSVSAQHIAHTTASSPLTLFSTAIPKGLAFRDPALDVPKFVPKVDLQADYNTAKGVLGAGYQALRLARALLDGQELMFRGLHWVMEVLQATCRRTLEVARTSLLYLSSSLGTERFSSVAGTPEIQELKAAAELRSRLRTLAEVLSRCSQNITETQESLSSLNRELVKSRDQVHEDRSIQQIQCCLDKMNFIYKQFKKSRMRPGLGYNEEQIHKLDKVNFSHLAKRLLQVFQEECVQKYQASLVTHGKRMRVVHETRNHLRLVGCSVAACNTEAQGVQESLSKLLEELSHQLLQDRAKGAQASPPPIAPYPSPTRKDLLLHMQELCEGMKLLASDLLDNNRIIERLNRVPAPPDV
Kind of experiment: TR-FRET enzymatic activity assay, IKKε. Also: full length recombinant IKKε at 0.3 nM. The class given is biochemical. To be noted: read-out: IKKϵ IC50. On the procedure:
as §1
Enzymatic activity of IKKε and TBK1 was measured using a homogeneous time resolved fluorescence resonance energy transfer (TR-FRET) assay that monitors enzyme dependent phosphorylation of a biotinylated serine/threonine peptide substrate. […] TBK1 and IKKε were expressed and purified as full length recombinant proteins. Detection reagents for the assay were purchased from Cisbio. […] After an assay reaction time of 240 minutes at 25° C., reactions were terminated with EDTA.
Amount of phosphorylated peptide was determined by the addition of 125 nM streptavidin XL665 and europium cryptate labeled anti-phospho monoclonal antibody and the resulting TR-FRET signal was recorded on an Envision plate reader (Ex: 340 nm; Em: 615/665 nm; 100 μs delay and 200 μs read window). Data was normalized based on a positive (1 μM Staurosporine) and negative (DMSO) controls and IC50 values calculated from the fit of the dose-response curves to a four-parameter equation. All IC50 values represent geometric mean values of a minimum of four determinations.

Turning to `N#CCC(=O)N1CC[C@H](Oc2ccc(-c3cc(NC(=O)C4CC4)ncn3)cc2C#N)C(F)(F)C1` [Example 153, (S)—N-(6-(3-cyano-4-((1-(2-cyanoacetyl)-3,3-difluoropiperidin-4-yl)oxy)phenyl)pyrimidin-4-yl)cyclopropanecarboxamide], the concentration for half-maximal inhibition (IC50) against TBK1 amounted to 23.6 nM; at IKKε, 140 nM.
For `N#Cc1cc(-c2ccnc(NC(=O)[C@@H]3C[C@@H]3CO)c2)ccc1O[C@H]1CCN(C(=O)CO)C[C@H]1F` [Example 74, (1,2-cis)-N-(4-(3-Cyano-4-(((3R,4S)-3-fluoro-1-(2-hydroxyacetyl)piperidin-4-yl)oxy)phenyl)pyridin-2-yl)-2-(hydroxymethyl)cyclopropane-1-carboxamide], the IC50 on TBK1 worked out at 99.3 nM; at IKKε, 145 nM.
The matching figures for `N#Cc1cc(-c2ccnc(NC(=O)[C@@H]3C[C@H]3C(=O)NCCO)c2)ccc1OC1CCOCC1` (relative stereo) [Example 46, (1,2-trans)-N1-(4-(3-cyano-4-((tetrahydro-2H-pyran-4-yl)oxy)phenyl)pyridin-2-yl)-N2-(2-hydroxyethyl)cyclopropane-1,2-dicarboxamide]: 302 nM and 429 nM.
On to `N#Cc1cc(-c2ccnc(NC(=O)[C@@H]3C[C@@H]3C(N)=O)c2)ccc1O[C@H]1CCN(C(=O)CO)C[C@H]1F` (stereo in doubt) [Example 82, (1,2-cis)-N1-(4-(3-cyano-4-(((3R,4S)-3-fluoro-1-(2-hydroxyacetyl)piperidin-4-yl)oxy)phenyl)pyridin-2-yl)cyclopropane-1,2-dicarboxamide], for which the IC50 against TBK1 was 607 nM; at IKKε, 857 nM.
The matching figures for `N#Cc1cc(-c2ccnc(NC(=O)[C@@H]3C[C@H]3c3cccnc3)c2)ccc1O[C@H]1CCN(C(=O)CO)C[C@H]1F` [Example 135, (1R,2R)—N-(4-(3-cyano-4-(((3R,4S)-3-fluoro-1-(2-hydroxyacetyl)piperidin-4-yl)oxy)phenyl)pyridin-2-yl)-2-(pyridin-3-yl)cyclopropane-1-carboxamide]: 21.4 nM and 27.4 nM.
The corresponding values for `N#Cc1cc(-c2cc(NC(=O)C3CC3)ncn2)ccc1O[C@H]1CCN(C(=O)CO)C[C@H]1F` [Example 19, N-(6-(3-cyano-4-(((3R,4S)-3-fluoro-1-(2-hydroxyacetyl)piperidin-4-yl)oxy)phenyl)pyrimidin-4-yl)cyclopropanecarboxamide] are 15.6 nM and 53.1 nM.
The corresponding values for `Cn1cnc(C2CC2C(=O)Nc2cc(-c3ccc(O[C@H]4CCN(C(=O)CO)C[C@H]4F)c(C#N)c3)ccn2)n1` (stereo partly drawn) [Example 145, N-(4-(3-Cyano-4-(((3R,4S)-3-fluoro-1-(2-hydroxyacetyl)piperidin-4-yl)oxy)phenyl)pyridin-2-yl)-2-(1-methyl-1H-1,2,4-triazol-3-yl)cyclopropane-1-carboxamide] are over 1000 nM and over 1000 nM.
Consider `CC(=O)OC1(C(=O)Nc2cc(-c3ccc(OC4CCOCC4)c(C#N)c3)ccn2)CC1` [Example 37, 1-((4-(3-cyano-4-((tetrahydro-2H-pyran-4-yl)oxy)phenyl)pyridin-2-yl)carbamoyl)cyclopropyl acetate], for which the IC50 on TBK1 and on IKKε was over 1000 nM each time.
Consider `N#Cc1cc(-c2ccnc(NC(=O)C3CC3)c2)ccc1N1CCC[C@H]1C(=O)O` [Example 26, (2-Cyano-4-(2-(cyclopropanecarboxamido)pyridin-4-yl)phenyl)-L-proline], for which the IC50 is 755 nM at TBK1 and over 1000 nM at IKKε.
For the compound `N#Cc1cc(-c2cc(NC(=O)C3CC3)ncn2)ccc1O[C@H]1CCN(C(=O)[C@@H](O)CO)C[C@H]1F` [Example 21, N-(6-(3-cyano-4-(((3R,4S)-1-((S)-2,3-dihydroxypropanoyl)-3-fluoropiperidin-4-yl)oxy)phenyl)pyrimidin-4-yl)cyclopropanecarboxamide], the IC50 came out at 6.1 nM against TBK1 and 31.3 nM on IKKε.
The matching figures for `N#Cc1cc(-c2cc(NC(=O)C3CC3)ncn2)ccc1O[C@H]1CCN(C(=O)c2nnc[nH]2)C[C@H]1F` [Example 28, N-(6-(3-cyano-4-(((3R,4S)-3-fluoro-1-(4H-1,2,4-triazole-3-carbonyl)piperidin-4-yl)oxy)phenyl)pyrimidin-4-yl)cyclopropanecarboxamide]: 8 nM and 12.4 nM.
For `N#Cc1cc(-c2ccnc(NC(=O)[C@H]3[C@@H]4COC[C@@H]43)c2)ccc1OC1CCOCC1` [Example 118, (1R,5S,6R)—N-(4-(3-cyano-4-((tetrahydro-2H-pyran-4-yl)oxy)phenyl)pyridin-2-yl)-3-oxabicyclo[3.1.0]hexane-6-carboxamide], the IC50 on TBK1 is 871 nM; at IKKε, 632 nM.
The corresponding values for `N#Cc1cc(-c2ccnc(NC(=O)C3CC3)c2)ccc1N1CC[C@H](F)C1` [Example 18, (S)—N-(4-(3-cyano-4-(3-fluoropyrrolidin-1-yl)phenyl)pyridin-2-yl)cyclopropanecarboxamide] are 20.3 nM and 61.3 nM.
The corresponding values for `C[n+]1ccccc1N1CC[C@H](Oc2ccc(-c3cc(NC(=O)C4CC4)ncn3)cc2C#N)[C@H](F)C1` [Example 31, 2-((3R,4S)-4-(2-cyano-4-(6-(cyclopropanecarboxamido)pyrimidin-4-yl)phenoxy)-3-fluoropiperidin-1-yl)-1-methylpyridin-1-ium 2,2,2-trifluoroacetate] are over 1000 nM and over 1000 nM.
For `C[C@H](O)C(=O)N1CC[C@H](Oc2ccc(-c3ccnc(NC(=O)C4CC4)c3)cc2C#N)[C@H](F)C1` [Example 9, N-(4-(3-cyano-4-(((3R,4S)-3-fluoro-1-((S)-2-hydroxypropanoyl)piperidin-4-yl)oxy)phenyl)pyridin-2-yl)cyclopropanecarboxamide], the IC50 against TBK1 stood at 15.2 nM; on IKKε, 46.4 nM.
The corresponding values for `N#Cc1cc(-c2ccnc(NC(=O)C3(C#N)CC3)c2)ccc1O[C@H]1CCN(C(=O)CO)C[C@H]1F` [Example 63, 1-Cyano-N-(4-(3-cyano-4-(((3R,4S)-3-fluoro-1-(2-hydroxyacetyl)piperidin-4-yl)oxy)phenyl)pyridin-2-yl)cyclopropane-1-carboxamide] are over 1000 nM and over 1000 nM.

What is called IC50 is the concentration that inhibits the measured activity by half.
